Ends that are not written are not given here.

Assay [1] concerns Akt Ser473 phosphorylation. Description: Western blot of Akt Ser473 phosphorylation in HaCaT cells. It is filed as cell-based, human. The conditions noted are these: 12 μM, 4 h; unstimulated and 2 μg/ml polyIC. Here is the method: Protein levels were corrected for loading differences (β-tubulin) and normalized to untreated control cells. […] Bar, 5 μm.
The multiple myeloma cell lines JJN-3 (gift from J. Ball, University of Birmingham, United Kingdom) were grown in RPMI 1640 (Sigma-Aldrich, Schnelldorf, Germany) supplemented with 10% FCS, 2 mM glutamine (Sigma-Aldrich), 2.5 μg/ml amphotericin B (Sigma-Aldrich) and 100 μg/ml gentamicin (Invitrogen, Carlsbad, Calif., USA). HaCaT cells (spontaneously transformed keratinocytes) were cultured in DMEM (Sigma-Aldrich) containing FCS, glutamine, amphotericin B, and gentamicin. All cells were cultured at 37° C. in a humidified atmosphere of 5% CO2.
Mononucleated cells were seeded and stimulated as described above. JJN-3 cells were treated with ATX-101 (6 μM) for 4 h. HaCaT cells were treated with ATX-101 (12 μM), polylC (2 μg/ml), and LPS (100 ng/ml) for 4 h. […] The proteins were visualized with the Odyssey infrared imaging system (LI-COR) and quantified using Odyssey Image Studio V2. […]
For orientation: Immunoblotting shows a protein as a band on a membrane.

Assay [2] deals with peripheral blood monocytes. As to the kind of experiment: Multiplex (27-plex) cytokine secretion of TLR-ligand stimulated peripheral blood monocytes. It is filed as cell-based, human. Particulars: 4 h. Here is the method: Measured cytokine levels were normalized to cytokine levels from monocytes stimulated with TLR ligand alone. A two fold or higher increase in cytokine level after TLR stimulation was defined as cytokine induction. […] Isolated monocytes were stimulated with 10 ng/ml LPS and 40 μg/ml polyIC alone and in combination with 4 μM ATX-101 for 4 h. […] DRAQS was used for nuclear staining. Bar, 5 μm.
Data is from one representative donor out of three; and (B-E) show multiplex analysis of cytokine levels produced by peripheral blood monocytes stimulated with 10 ng/ml LPS (B and D, same donor) and 40 μg/ml polyIC (C and E, same donor) after 4 h. (B and C) Stimulated-monocytes were treated with 4 μM ATX-101, 10 μM SB203580 (p38 MAPK inhibitor), and combination of ATX-101 and SB203580. (D and E) Stimulated-monocytes were treated with 4 μM ATX-101, 5 and 10 μM LY294002 (PI3K class I inhibitor), and combination of ATX-101 and LY294002. Measured cytokine levels were normalized to cytokine levels from monocytes stimulated with TLR ligand alone. A two fold or higher increase in cytokine level after TLR stimulation was defined as cytokine induction. # Value is too low to be visible in the column diagram; ? cytokine measurement was out of range. Data is from representative experiments out of two.
Measured cytokine levels were normalized to cytokine levels from monocytes stimulated with TLR ligand alone. A two fold or higher increase in cytokine level after TLR stimulation was defined as cytokine induction. ? Cytokine measurement was out of range. Data is from one experiment out of two.
Measured cytokine levels were normalized to cytokine levels from monocytes stimulated with TLR ligand alone. Data is from one donor. We obtained similar results for IL-6 secretion in two other donors.
Measured cytokine levels were normalized to cytokine levels from monocytes stimulated with TLR ligand alone. A two fold or higher increase in cytokine level after TLR stimulation was defined as cytokine induction. # Value is too low to be visible in the column diagram; 0 Cytokine measurement was out of range. Data is from one experiment out of two.
Peripheral blood mononuclear cells were isolated from A+ buffy coats (Blood Bank, St. Olav's University Hospital, Trondheim, Norway) by density gradient centrifugation (Lymphoprep; Axis-Shield PoC, Oslo, Norway). Mononucleated cells were seeded at 4 million cells/ml in serum-free RPMI 1640 supplemented with glutamine and gentamicin. After 60-90 min the adherent cell population was washed before cultured in medium with 10% heat-inactivated human serum (Blood Bank, St. Olav's University Hospital). ATX-101 (4 μM [Innovagen, Lund, Sweden]), ATX-A (4 μM, [Innovagen]) (ATX-A is represented in SEQ ID NO: 1206 and contains the motif RALVK (SEQ ID NO: 1207), which is not capable of interacting with PCNA), p38 inhibitor (SB203580, 10 μM, [Sigma-Aldrich]), PI3K inhibitor (LY294002, 5 and 10 μM, [Sigma-Aldrich]), and Akt inhibitor (Akt inhibitor XVIII SC66, 1 μg/ml, [Sigma-Aldrich]) were added in serum-free medium and incubated for 5 min before LPS (10 ng/ml, [Sigma-Aldrich]), polylC (40 μg/ml, [GE Healthcare, Little Chalfont, UK]), PAM3Cys (10 ng/ml, [Invivogen, San Diego, Calif., USA]) or R848 (10 μg/ml, [Invivogen]) were added in serum-containing medium. The cells were incubated for 4 h before the supernatants were harvested and frozen prior to further cytokine analysis by the 27-plex assay (Bio-Plex ProTM Human cytokine 27-plex assay).

Another assay addresses PCNA (Homo sapiens, UniProt P12004). As to the kind of experiment: Microscale thermophoresis (MST) of peptide interaction with PCNA. It is filed as binding. Here is the method:
Microscale thermophoresis (MST) was used to determine the dissociation constant for various APIM containing peptides.
PCNA was labeled with a fluorescent molecule. The concentration of PCNA was kept constant, whereas dilutions of each APIM containing peptide were prepared (1:1).
A general note: Microscale thermophoresis detects binding through changes in fluorescence in a small temperature gradient.

Sequence of PCNA (P12004 whole entry): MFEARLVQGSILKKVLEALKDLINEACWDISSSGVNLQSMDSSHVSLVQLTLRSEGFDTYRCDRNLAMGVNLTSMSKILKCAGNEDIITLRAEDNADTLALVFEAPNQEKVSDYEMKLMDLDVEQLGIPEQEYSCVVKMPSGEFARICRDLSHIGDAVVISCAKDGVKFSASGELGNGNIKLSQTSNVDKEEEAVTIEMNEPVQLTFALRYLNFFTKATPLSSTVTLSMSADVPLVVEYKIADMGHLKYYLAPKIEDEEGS

With Ac-MDRWLVKWKKKRKIRRRRRRRRRRR [ATX-101], the “Akt phosphorylation in HaCaT cells” value in assay [1] is “reduced Akt phosphorylation in unstimulated and stimulated cells”. For the same substance, the “cytokine secretion, combination of ATX-101 and p38 MAPK inhibitor” value in assay [2] (LPS or polyIC, 4 μM ATX-101 + 10 μM SB203580) is “increased reduction of most cytokines”. The “cytokine secretion, combination of ATX-101 and PI3K inhibitor LY294002” value in assay [2] (LPS or polyIC, 4 μM ATX-101 + 5 and 10 μM LY294002) was “reduction in the secretion of some cytokines”. Also, in assay [2] (LPS or polyIC, ATX-101 4 μM, SB203580 10 μM, LY294002 5 and 10 μM, SC66 1 μg/ml), the “cytokine secretion from stimulated monocytes, single agent” value is “reduced cytokine secretion”. Moreover, the “basal level production of CXCL10” value in assay [2] (isolated monocytes, 4 μM) is reported as “decreased”. Besides, in assay [2] (monocytes, 4 μM), the “basal level of IL-12” value is listed as “reduced the basal level of IL-12”. Besides, the “secretion of LPS-induced cytokines” value in assay [2] (monocytes, 4 μM, 10 ng/ml LPS) is reported as “efficiently reduced”. Further, the “secretion of CXCL10, CCL2, CCL3 and CCL4 after TLR3 stimulation with polyIC” value in assay [2] (monocytes, 4 μM, 40 μg/ml polyIC) was “reduced the secretion of CXCL10, CCL2, CCL3, and CCL4”. Also, the “interaction with PCNA by MST (in words)” value at PCNA was “stronger interactions with PCNA than ATX-A”.
